doi:10.1101/2025.10.14.682402v1 (biorxiv, 2025)

How the values were obtained:
kinase domain of ULK2 = target: T1, kinase domain of ULK2 (Homo sapiens, UniProt Q8IYT8); conditions: binder
T1 sequence (Q8IYT8 1-276 limits assumed): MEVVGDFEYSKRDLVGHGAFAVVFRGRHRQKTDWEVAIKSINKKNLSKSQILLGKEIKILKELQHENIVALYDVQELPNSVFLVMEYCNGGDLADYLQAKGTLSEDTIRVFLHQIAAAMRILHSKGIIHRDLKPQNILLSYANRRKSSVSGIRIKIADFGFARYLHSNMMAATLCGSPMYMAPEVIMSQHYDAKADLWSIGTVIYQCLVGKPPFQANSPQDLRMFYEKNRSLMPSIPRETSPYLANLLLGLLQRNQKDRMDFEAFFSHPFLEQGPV

ULK1 [1] = target: T2, ULK1 (Homo sapiens, UniProt O75385); assay: ADP-Glo kinase assay; assay type: biochemical
T2 sequence (O75385 1-1050): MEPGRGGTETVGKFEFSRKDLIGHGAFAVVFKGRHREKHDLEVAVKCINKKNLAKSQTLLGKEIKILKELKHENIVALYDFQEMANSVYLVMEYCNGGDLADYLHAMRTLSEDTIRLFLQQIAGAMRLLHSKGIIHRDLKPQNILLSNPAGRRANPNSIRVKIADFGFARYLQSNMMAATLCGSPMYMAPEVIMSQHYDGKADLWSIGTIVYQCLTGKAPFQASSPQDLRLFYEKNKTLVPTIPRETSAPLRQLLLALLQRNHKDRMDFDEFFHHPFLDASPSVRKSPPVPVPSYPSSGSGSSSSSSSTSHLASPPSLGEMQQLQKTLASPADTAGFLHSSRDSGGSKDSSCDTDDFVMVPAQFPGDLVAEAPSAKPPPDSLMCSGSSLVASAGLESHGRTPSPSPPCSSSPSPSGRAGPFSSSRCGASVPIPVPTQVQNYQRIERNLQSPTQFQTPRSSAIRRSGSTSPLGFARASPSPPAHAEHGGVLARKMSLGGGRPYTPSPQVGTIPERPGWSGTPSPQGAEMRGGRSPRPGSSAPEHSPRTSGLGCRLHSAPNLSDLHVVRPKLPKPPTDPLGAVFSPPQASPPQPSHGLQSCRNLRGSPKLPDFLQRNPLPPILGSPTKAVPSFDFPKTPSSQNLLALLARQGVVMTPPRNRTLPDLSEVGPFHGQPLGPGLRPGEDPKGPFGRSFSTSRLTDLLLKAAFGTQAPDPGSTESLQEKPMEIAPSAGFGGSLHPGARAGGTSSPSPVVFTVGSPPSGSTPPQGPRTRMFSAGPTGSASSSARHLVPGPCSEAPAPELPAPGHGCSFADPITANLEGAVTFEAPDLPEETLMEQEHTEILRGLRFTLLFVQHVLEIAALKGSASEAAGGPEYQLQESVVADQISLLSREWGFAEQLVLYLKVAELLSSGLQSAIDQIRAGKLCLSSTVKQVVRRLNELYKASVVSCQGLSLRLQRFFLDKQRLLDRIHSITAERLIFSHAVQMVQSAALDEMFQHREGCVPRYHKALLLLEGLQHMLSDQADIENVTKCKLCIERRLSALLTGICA

ULK2 = target: T3, ULK2 (Homo sapiens, UniProt Q8IYT8); assay: biochemical
T3 sequence (Q8IYT8 1-1036): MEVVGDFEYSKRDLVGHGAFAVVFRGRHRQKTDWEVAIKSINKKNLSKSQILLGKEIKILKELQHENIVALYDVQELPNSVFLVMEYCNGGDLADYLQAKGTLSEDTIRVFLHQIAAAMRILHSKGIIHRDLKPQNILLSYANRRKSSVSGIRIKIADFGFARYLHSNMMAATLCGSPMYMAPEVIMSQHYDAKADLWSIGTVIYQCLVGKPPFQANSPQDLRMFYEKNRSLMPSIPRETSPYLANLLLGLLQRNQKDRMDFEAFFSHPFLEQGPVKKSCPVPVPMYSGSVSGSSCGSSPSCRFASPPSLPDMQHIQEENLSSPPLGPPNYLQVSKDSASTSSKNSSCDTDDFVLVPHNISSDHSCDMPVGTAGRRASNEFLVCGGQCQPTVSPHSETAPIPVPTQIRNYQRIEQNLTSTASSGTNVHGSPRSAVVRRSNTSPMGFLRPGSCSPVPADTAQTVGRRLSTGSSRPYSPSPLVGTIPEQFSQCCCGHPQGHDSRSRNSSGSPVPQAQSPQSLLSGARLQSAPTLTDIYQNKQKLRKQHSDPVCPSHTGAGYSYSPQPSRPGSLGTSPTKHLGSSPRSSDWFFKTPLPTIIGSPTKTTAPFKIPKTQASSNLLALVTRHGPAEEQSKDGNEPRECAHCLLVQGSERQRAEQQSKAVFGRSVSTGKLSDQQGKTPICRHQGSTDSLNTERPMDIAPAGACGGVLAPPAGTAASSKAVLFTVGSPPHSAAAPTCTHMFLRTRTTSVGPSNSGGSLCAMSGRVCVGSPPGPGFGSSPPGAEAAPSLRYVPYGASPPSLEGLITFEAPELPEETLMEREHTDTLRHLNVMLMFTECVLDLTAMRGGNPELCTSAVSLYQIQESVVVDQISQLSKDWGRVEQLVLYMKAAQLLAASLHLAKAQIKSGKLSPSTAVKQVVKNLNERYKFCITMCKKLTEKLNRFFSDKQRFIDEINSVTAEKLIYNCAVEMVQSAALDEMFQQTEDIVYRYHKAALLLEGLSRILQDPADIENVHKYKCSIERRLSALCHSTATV

kinase domain of ULK1 = target: T4, kinase domain of ULK1 (Homo sapiens, UniProt O75385); conditions: binder
T4 sequence (O75385 1-283 limits assumed): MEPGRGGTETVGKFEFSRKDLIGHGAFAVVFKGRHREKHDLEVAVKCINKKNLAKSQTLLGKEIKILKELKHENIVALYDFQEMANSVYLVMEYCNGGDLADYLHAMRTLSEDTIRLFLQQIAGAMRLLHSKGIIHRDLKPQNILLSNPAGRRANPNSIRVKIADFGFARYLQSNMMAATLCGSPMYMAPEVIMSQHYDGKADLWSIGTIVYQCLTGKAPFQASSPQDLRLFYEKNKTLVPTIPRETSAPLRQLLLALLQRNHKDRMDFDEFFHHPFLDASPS

ULK1 [2] = target: T2, ULK1; assay: biochemical
ULK1 (NanoBRET) = target: T5, ULK1 (NanoBRET) (Homo sapiens, UniProt O75385); assay: NanoBRET cellular target engagement; assay type: cell-based
T5 sequence (O75385 1-1050): T2 sequence (O75385 1-1050)

ULK2 PTS (ºC) (kinase domain of ULK2)	IC50 (ULK1 [1])	IC50 (ULK2)	ULK1 PTS (ºC) (kinase domain of ULK1)	IC50 (ULK1 [2])	IC50 (ULK1 (NanoBRET))	Molecule
4.13 ± 0.02 °C	141 nM	> 3000 nM	5.60 ± 0.23 °C			CNC(=O)c1ccccc1Nc1nc(Nc2ccc(N3CCOCC3)cc2OC)ncc1Br [6b, 2-(5-Bromo-2-(2-methoxy-4-morpholinophenylamino)pyrimidin-4-ylamino)-N-methylbenzamide]
5.86 ± 0.12 °C		> 3000 nM	6.78 ± 0.19 °C	94 ± 43 nM		CNC(=O)c1ccccc1Nc1nc(Nc2ccc3[nH]ccc3c2)ncc1Cl [6g, 2-(2-(1H-indol-5-ylamino)-5-chloropyrimidin-4-ylamino)-N-methylbenzamide]
7.49 ± 0.46 °C		> 3000 nM	8.08 ± 0.53 °C	6 ± 1 nM		CNC(=O)c1ccccc1Nc1nc(Nc2ccc3[nH]ccc3c2)ncc1Br [6h, 2-(2-(1H-indol-5-ylamino)-5-bromopyrimidin-4-ylamino)-N-methylbenzamide]
4.43 ± 0.33 °C	218 nM	> 3000 nM	6.05 ± 0.13 °C			CNC(=O)c1ccccc1Nc1nc(Nc2ccc3c(c2)OCCO3)ncc1Cl [6j, 2-(5-Chloro-2-(2,3-dihydrobenzo[b][1,4]dioxin-6-ylamino)pyrimidin-4-ylamino)-N-methylbenzamide]
1.38 ± 0.33 °C		> 3000 nM	6.53 ± 0.87 °C	50 ± 25 nM		CNC(=O)c1ccccc1Nc1nc(Nc2cccc(OC)c2)ncc1Cl [6n, 2-(5-Chloro-2-(3-methoxyphenylamino)pyrimidin-4-ylamino)-N-methylbenzamide]
					47 ± 11 nM	FC(F)(F)c1cnc(Nc2ccc3c(c2)CCNC3)nc1NC1CC1 [SBP-5147, reference compound]

Second part, the molecule before the results:

Molecule	ULK2 PTS (ºC) (kinase domain of ULK2)	IC50 (ULK1 [1])	IC50 (ULK2)	ULK1 PTS (ºC) (kinase domain of ULK1)	IC50 (ULK1 [2])	IC50 (ULK1 (NanoBRET))
CNC(=O)c1ccccc1Nc1nc(Nc2ccc(N3CCOCC3)cc2OC)ncc1C(F)(F)F [6c, 2-(2-(2-Methoxy-4-morpholinophenylamino)-5-(trifluoromethyl)pyrimidin-4-ylamino)-N-methylbenzamide]	6.50 ± 0.09 °C	62 nM	1340 ± 198 nM	6.55 ± 0.12 °C		
CNC(=O)c1ccccc1Nc1nc(Nc2ccc3c(c2)CC(=O)N3)ncc1Cl [6f, 2-(5-Chloro-2-(2-oxoindolin-5-ylamino)pyrimidin-4-ylamino)-N-methylbenzamide]	0.48 ± 0.06 °C	21 nM	> 3000 nM	0.20 ± 0.13 °C		
CNC(=O)c1ccccc1Nc1nc(Nc2cc3c(cc2C)OCO3)ncc1Cl [6i, 2-(5-Chloro-2-(6-methylbenzo[d][1,3]dioxol-5-ylamino)pyrimidin-4-ylamino)-N-methylbenzamide]	2.45 ± 0.20 °C		> 3000 nM	3.37 ± 0.38 °C	2700 ± 1780 nM	
CNC(=O)c1ccccc1Nc1nc(Nc2cc(OC)ccc2C)ncc1Cl [6k, 2-(5-Chloro-2-(5-methoxy-2-methylphenylamino)pyrimidin-4-ylamino)-N-methylbenzamide]	3.38 ± 0.14 °C	292 nM	893 ± 454 nM	5.75 ± 0.12 °C		
CNC(=O)c1ccccc1Nc1nc(Nc2cc(OC)ccc2C)ncc1C(F)(F)F [6l, 2-(2-(5-Methoxy-2-methylphenylamino)-5-(trifluoromethyl)pyrimidin-4-ylamino)-N-methylbenzamide]	7.08 ± 0.25 °C	38 nM	1960 ± 101 nM	8.90 ± 0.17 °C		
CNC(=O)c1ccccc1Nc1nc(Nc2cc(OC)ccc2C)ncc1Br [6m, 2-(5-Bromo-2-(5-methoxy-2-methylphenylamino)pyrimidin-4-ylamino)-N-methylbenzamide]	4.28 ± 0.19 °C	32 nM	> 3000 nM	6.78 ± 0.13 °C		
CNC(=O)c1ccccc1Nc1nc(Nc2cc(OC)c(OC)c(OC)c2)ncc1Cl [6o, 2-(5-Chloro-2-(3,4,5-trimethoxyphenylamino)pyrimidin-4-ylamino)-N-methylbenzamide]	12.01 ± 0.05 °C	8 nM		14.25 ± 0.11 °C		4.05 nM
CNC(=O)c1ccccc1Nc1nc(Nc2cc(N3CCOCC3)cc(N3CCOCC3)c2)ncc1C(F)(F)F [6r, 2-(2-(3,5-dimorpholinophenylamino)-5-(trifluoromethyl)pyrimidin-4-ylamino)-N-methylbenzamide]	16.70 ± 0.05 °C		19 ± 3 nM	17.28 ± 0.06 °C	15 ± 1 nM	17 nM
CNC(=O)c1ccccc1Nc1nc(Nc2cc(N3CCOCC3)cc(N3CCOCC3)c2)ncc1Cl [6s, 2-(5-Chloro-2-(3,5-dimorpholinophenylamino)pyrimidin-4-ylamino)-N-methylbenzamide]	11.50 ± 0.27 °C		180 ± 9 nM	13.28 ± 0.40 °C	38 ± 4 nM	
CNC(=O)c1ccccc1Nc1nc(Nc2cc(N3CCOCC3)cc(N3CCOCC3)c2)ncc1Br [6t, 2-(5-Bromo-2-(3,5-dimorpholinophenylamino)pyrimidin-4-ylamino)-N-methylbenzamide]	16.23 ± 0.15 °C		59 ± 6 nM	16.83 ± 0.12 °C	8 ± 1 nM	
O=C1CCc2cc(Nc3ncc(C(F)(F)F)c(NC4CC4)n3)ccc2N1 [SBP-7501, reference compound]						167 ± 31 nM
SBP-7455 [reference compound]						328 ± 43 nM
